# Assay results: article PMC6412891, “Synthesis and Biological Evaluation of Novel Thiazolyl-Coumarin Derivatives as Potent Histone Deacetylase Inhibitors with Antifibrotic Activity” (Molecules, 2019)
# Tests used:
# [1] = system: HDACs HeLa cells nuclear extract; assay: HDAC inhibitory activity, fluorometric kit, HeLa cell nuclear extract; format: biochemical, human; conditions: HeLa cell nuclear extract as HDAC source
# α-SMA expression in CFs = assay: α-SMA expression levels in cardiac fibroblasts, western blot; format: cell-based, rat; conditions: derivatives 5 μM (TSA 0.1 μM) for 48 h in presence of TGF-β1
# Description: For this purpose, a fixed concentration of 5a, 6a, 7a and 8a derivatives in the presence/absence of TGF–β1 (a strong inducer of CFs–to–CMFs differentiation), was studied, and α–SMA expression levels were measured by using the western blot technique. TSA was used as a control and also for comparative purposes.
# (§1) For the analysis of the protein expression of histone H4–acetylated (ac–H4) and total H4 histone, a number of 1 × 10^6 of CFs seeded in 60 mm plates was used, which were incubated with the inhibitory compounds at a concentration of 10 μM, in the absence/presence of TGF–β1(5ng/mL) for 4 h. Subsequently, total histones were extracted by the technique of saline precipitation (high salt extraction). Briefly, CFs were scraped from the plates with 1 mL of cold PBS transferring their contents to Eppendorf tubes to be centrifuged for 60 s at 1500 rpm at 4 °C and re–suspended in 400 μL of cold buffer A (10 mM 4-(2-hydroxyethyl)-1-piperazineethanesulfonic acid-KOH (HEPES-KOH) adjusted to pH 7.9, 1.5 mM MgCl2, 10 mM KCl, 0.5 mM dithiothreitol and 0.2 mM phenylmethylsulfonyl fluoride (PMSF). The suspension is left on ice for 10 min and then placed in the vortex for 10 s. The samples were centrifuged for 60 s, subsequently discarding the supernatant fraction. The obtained pellet was re-suspended in 60 μL of cold C buffer (20 mM HEPES-KOH adjusted to pH 7.9, 25% glycerol, 420 mM NaCl, 1.5 mM MgCl2, 0.2 mM EDTA, dithiothreitol 0.5 mM and 0.2 mM PMSF) and placed on ice for 20 min for saline precipitation. Cell debris is removed by centrifugation for 120 s at 1500 rpm at 4 °C and the supernatant fraction, which contains the DNA binding proteins, is stored at minus 20 °C. For the analysis of α–SMA and procollagen type I expression levels, 3×10^5 CFs seeded in 35 mm plates were used, which were incubated together with inhibitor compounds at a 5 μM, in the absence/presence of TGF–β1 (5 ng/mL) for 48 h. To obtain the total proteins, the CFs were washed three times with cold PBS, then scraped and lysed with 50 μL of radio inmuno-precipitation assay (RIPA) lysis buffer (10 mM Tris–HCl pH 7.2, 5 mM EDTA, 150 mM NaCl, Triton X–100 1%, sodium dodecyl sulfate (SDS) 0.1%, deoxycholate 1%, leupeptin 2 μg/mL, aprotinin 10mM, PMSF 1mM and Na3VO4 100μM). The solution was centrifuged for 15 min at 10,000 rpm and at 4 °C. The supernatant fraction containing the total proteins was stored at minus 20 °C. The concentration of proteins obtained was determined by spectrophotometry at 570 nm, using the Bradford method (Bio-Rad, Hercules, CA, USA).
# (§2) CFs proteins (25 μg), were subjected to 10% sodium dodecyl sulfate-polyacrylamide gel electrophoresis and finally transferred onto a nitrocellulose membrane (Millipore, Billerica, MA, USA). The membrane was washed twice with tris–buffered saline solution containing 0.1% Tween 20 (TBST). After being blocked with TBST containing 5% nonfat milk for 40 min, the membrane was incubated with primary antibodies in TBST/1% nonfat milk at 4 °C overnight. The membrane was washed three times with TBST for a total of 15 min and then incubated with primary antibodies (ac–H4, H4 total, α-SMA, procollagen type I and GAPDH). Then the membrane was incubated with goat anti–rabbit or anti-mouse IgG antibodies conjugated with horseradish (diluted 1:1000) for 1 h at room temperature. Signals were developed with ECL reagents and exposure to photographic film.
# Figure 4 CTz non–substituted inhibit α-SMA expression in cardiac fibroblasts. (A) CFs were exposed to 5a, 6a, 7a and 8a at 5 μM for 48 h. […] (B) CFs were exposed to 5a, 6a, 7a and 8a at 5 μM for 48 h in presence of TGF–β1 ([…]). α-SMA expression levels were measured by western blot. GAPDH was used as control load.
# [2] = system: procollagen type I expression in CFs; assay: Procollagen type I expression levels in cardiac fibroblasts, western blot; format: cell-based, rat; conditions: derivatives 5 μM (TSA 0.1 μM) for 48 h in presence of TGF-β1
# Description: In CFs collagen type I secretion is a hallmark of cardiac fibrosis development, which is regulated by HDACs. […] For this purpose, a fixed concentration of 5a, 6a, 7a and 8a derivatives in presence/absence of TGF-β1 were studied, and procollagen type I expression levels were measured by using the western blot technique. TSA was used as control and also for comparative purposes. In Figure 5 (A and B), in the upper panel representative photographs of procollagen type I expression level and GAPDH (used as charge control) are shown, whereas in the lower panel the graphic analyses are observed.
# as §1, §2
# Figure 5 CTz non–substituted inhibit procollagen type I expression levels in cardiac fibroblasts. […] (B) CFs were exposed to 5a, 6a, 7a and 8a at 5 μM for 48 h in presence of TGF–β1. Procollagen type I expression levels were measured by western blot. GAPDH was used as control load.
compound,measurement,setting,value
"CC(/C=C/C(=O)NO)=C\[C@@H](C)C(=O)c1ccc(N(C)C)cc1 [TSA, trichostatin A, reference compound]",IC50,[1],5 ± 0.12 nM
same,α-SMA expression levels induced by TGF-β1,α-SMA expression in CFs,decrease close to control levels
same,procollagen type I expression levels induced by TGF-β1,[2],"decreased, close to control levels"
